Data from patent publication US9290427B2, “Anti-invasive compounds” (Universiteit Gent, priority 2012, dated 2016).

Legend:
[1] = tested on: CT5.3 myofibroblasts; assay: SRB test, CT5.3; assay type: cell-based, human; conditions: 10 μmol·L−1, 24 h, decreasing trend, not significant
Procedure: The SRB assay is used to evaluate growth effects on cells, and measures the total protein content. In this test, 5,000 cells are seeded in a cup of a 96-well plate. Upon a 24 h-attachment period, cells are treated with a certain amount of the test molecule (dissolved in DMSO). After a pre-chosen incubation time, cells are fixed with 50 μL of 50% trichloroacetic acid (2° C., 1 h). Afterward, the plate is rinsed five times with tap water, and air dried overnight.
Next, proteins are stained with 75 μL of a 0.4% solution of SRB in AcOH (30 min). Unbound SRB is subsequently removed by washing with a 1% solution of glacial AcOH, whereupon the plate is air dried. Then, bound SRB is redissolved in 100 μL of a 10 mmol·L^−1 tris(hydroxymethyl)aminomethane (Tris) buffer (pH=10.5), after which optical density is determined at 490 nm with a spectrophotometer.
(§1) In order to verify whether the antiproliferative effects of compound 49, witnessed in BLM and MCF-7/6 cells at high concentrations, were cell specific, additional SRB and MTT assays on a further five cell lines (HCT8-E11, TR146, FaDu, 3T3-L1 and CT5.3) were conducted (FIG. 8). The results for MCF-7/6 cells were added to facilitate comparison.
The CT5.3 cell line consists of human myofibroblasts which were isolated from a colon tumor (Van Hoorde et al., 1999). […]

[2] = tested on: MCF-7/6 mammary carcinoma cells; assay: chick heart invasion assay; assay type: cell-based, human; parameters: unit not given here
Text: “Anti-invasive” or “anti-invasive activity” is the ability to inhibit the invasiveness of tumor cells. Invasion by tumor cells is defined as the progressive occupation and destruction of their environment, and is the result of matrix degradation and directional cell motility. Anti-invasive activity of a compound is the ability to inhibit or block invasion, and can be assessed by counting the number of invading cells, by the depth of their invasion and/or by the amount of environmental destruction. Many assays in vitro can be applied to test for anti-invasive activity (for a complete list see Bracke et al. 2008). The three most popular ones are: • Chick heart invasion assay (Bracke et al., 2001, see details below). The cut-off value is between grade II (non-invasive) and grade III (invasive). […] Collagen gels, prepared on the bottom of plastic wells are covered with a test cell suspension, and incubated with liquid culture medium for 24 h. Invasion is evaluated with an inverted phase-contrast microscope, and is based on the percentage of cells showing extensions in the gel. […] Matrigel is a mixture of basement membrane components, and is applied as a semi-solid layer on top a filter with pores allowing the transgression of cells. The test cell suspension is seeded on top of the gel, and incubated for 1 day in a two-compartment chamber system. Invasion is then evaluated via the percentage of cells that are attached to the lower side of the filter.
In the chick heart invasion assay cancer cells are confronted with a fragment of normal tissue, so as not to neglect the contribution of the host tissue in the micro-ecosystem that governs tumor behavior. As such, precultured heart tissue fragments (PHFs), dissected from 9-day-old chicken embryos, may be confronted with aggregates of human invasive MCF-7/6 mammary carcinoma cells in the presence of a certain concentration of a test compound. After eight days, the interaction between the cancer cells and the PHF is evaluated histologically and classified along a 5-grades subjective scale (Bracke et al., 2001). Grades III and IV are typical for invasion, while grades 0, I and II correspond to absence of invasion. Compounds that inhibit invasion of confronting cancer cells i.e. from III/IV to 0/I/II, are determined as anti-invasive. Possible alternative assays generally known in the art are the type I collagen invasion assay, wound healing assay and the matrigel invasion assay.
“Anti-invasive” refers to the ability to inhibit invasion of the tumor or cancer cell into surrounding tissue (within or outside the organ of origin). […] This screening method confronts cancer cells with a fragment of normal tissue, so as not to neglect the contribution of the host tissue in the micro-ecosystem that governs tumor behavior. The interaction between the cancer cells and the normal tissue is evaluated histologically and classified along a 5-grades subjective scale. Grades III and IV are typical for invasion, while grades 0, I and II correspond to absence of invasion. Compounds that inhibit invasion of confronting cancer cells i.e. from III/IV to 0/I/II, are determined as anti-invasive. Possible alternative assays generally known in the art are the type I collagen invasion assay and the Matrigel invasion assay.
The potency of these molecules had been evaluated by means of the chick heart invasion assay, as described herein before.

[3] = tested on: BLM melanoma cells; assay: MTT test, BLM; assay type: cell-based
Procedure: (§2) An MTT test provides an indication of cell viability, proliferation and activity through determination of the mitochondrial conversion of 3-(4,5-dimethylthiazol-2-yl)-2,5-diphenyltetrazolium bromide (MTT), a yellow salt, into formazan, a salt that precipitates under the form of blue crystals.
(§3) In concreto, 5,000 cells are seeded in a cup of a 96 well-plate, treated with the desired amount of the test substance, and incubated for a chosen period of time. Next, 40 μL of a filtered (0.2 μm) 5 mg·mL^−1 solution of MTT in PBS is added to the cup. After 2 h of incubation at 37° C. in the dark, all liquid is removed. The obtained formazan salts are dissolved in 200 μL of DMSO, whereupon optical density is measured at 490 nm.
As 4-fluoro-3′,4′,5′-trimethoxychalcone had exerted an anti-invasive activity on BLM melanoma cells in the Matrigel invasion assay, we were intrigued to verify how its effect on the viability of BLM cells would compare to that observed for the MCF-7 cell lines.

[4] = tested on: CT5.3 myofibroblasts; assay: MTT test, CT5.3; assay type: cell-based, human; conditions: 10 μmol·L−1, 24 h
Procedure: as §2, §3, §1
The CT5.3 cell line consists of human myofibroblasts which were isolated from a colon tumor (Van Hoorde et al., 1999). 3T3-L1 cells are murine fibroblasts, originating from embryo's of Swiss mice (Todaro and Green, 1963). HCT8-E11, FaDu and TR146 are human epithelial cancer cell lines. […]

COc1cc(C(=O)/C=C/c2ccc(F)cc2)cc(OC)c1OC [Compound 49, (2E)-3-(4-Fluorophenyl)-1-(3,4,5-trimethoxyphenyl)propenone]
change in total protein content [1]: −15%
Actual in vitro activity class ([2]; compounds 37-51, Table 11): −2 (about 0.01)
Actual class ([2]; training set compounds 37-51, class = log cmin, lowest concentration with invasion grade I or II): −2 (about 0.01)
reduction of BLM cell viability (mitochondrial activity) ([3]; 0.1 μmol·L−1, 24 h): 22%
reduction of BLM cell viability (mitochondrial activity) ([3]; 1 μmol·L−1, 24 h): 27%
reduction in mitochondrial activity ([3]; 10 μmol·L−1, 24 h): 40%
reduction of BLM cell viability (mitochondrial activity) ([3]; 100 μmol·L−1, 24 h): 76%
decrease in mitochondrial activity [4]: 22%
